Data set [1] in a line: Single-dose crossover bioavailability study, REP plasma levels by LC-MS/MS. In kind it is in vivo, rabbits. The following applies: male, albino, rabbit, po.
The conditions of data set [2]: cited from earlier work.
Data set [3] in a line: In vitro dissolution studies. In kind it is physicochemical. The following applies: phosphate buffer pH 6.8.

Molecules are shown by their SMILES.

Results on one compound are retold here after PMC6432887 (Drug Design, Development and Therapy, 2019).

By AUC(0-inf) is commonly meant the area under the concentration-time curve extrapolated to infinity. What is called AUC(0-t) is exposure summed from dosing to a finite time, without extrapolation to infinity. A lower AUC(0-t) goes with low exposure. A word on the Cmax: it is the peak of the concentration-time curve. Usually Tmax stands for the time from dosing to the highest level. The term half-life denotes the time needed for the level to fall by half in the phase considered. As to `CCOc1cc(CC(=O)N[C@@H](CC(C)C)c2ccccc2N2CCCCC2)ccc1C(=O)O` [Plain REP, Repaglinide], in data set [1], the AUC(0-inf) was 95400 ± 7220 ng·h/mL, the AUC(0-t) was determined as 93400 ± 5610 ng·h/mL, the peak level (Cmax) was 31900 ± 1620 ng/mL and the Tmax turned out to be 1 ± 0.143 h. In data set [1], this compound gave a half-life of 1.31 ± 0.117 h and a k el of 0.000147 s⁻¹. For the same compound, in data set [2], the “Biopharmaceutics Classification System (BCS) class” value is given as “class II”. For the same compound, the percentage drug released in data set [3] (optimized formulae, alginate film and plain drug, within 30 minutes) came out at 22.981%. The release rate in data set [3] (within 10 minutes) stood at 8.166%. For the same compound, the release rate in data set [3] (within 15 minutes) is recorded as 19.65%.
